Measured values taken from patent US20130158066A1, “4-AZAINDOLE INHIBITORS OF CRAC” (Hoffmann-La Roche Inc., priority 2011, published 2013).

test system: IL-2 production in Jurkat cell; assay: Jurkat IL-2 Production Assay; assay type: cell-based; details: Homo sapiens, Jurkat cell (ATCC), 18-20 h incubation, serum/stimulant condition (1% FBS/PHA or 30% FBS/PMA-ionomycin) not given
Protocol: Jurkat IL-2 Production Assay
Jurkat cell (ATCC) was grown in RPMI 1640 with 10% FBS and 1% penicillin/streptomycin. The cell density was kept at 1.2˜1.8×10^6/mL in culture flask before seeding into culture plate, and the cell density in the plate was 0.5×10^6/[…]/well.
RPMI 1640 with 1% FBS or 30% FBS for high serum assay.
serial dilution was done in 100% DMSO, and intermediate dilution was done with RPMI 1640 medium with 1% FBS. The DMSO final concentration in culture well was 0.25%.
PHA (Sigma#L9017-10MG) was used for the assay with 1% FBS in culture medium, and added after 10 minutes exposure of cell to compound/DMSO. The PHA final concentration in culture well was 5 μg/mL. PMA (Sigma# P-8139 5MG)/Ionomycin (Sigma# I0634-5MG) was used for the assay with 30% FBS in culture medium, and added at same time point as the 1% FBS culture assay. The final concentration of PMA was 50 ng/mL, and Ionomycin final concentration was 500 ng/mL.
at 37° C. with 5% CO2 and 95% humidity for 18 h ˜20 h.
IC50 was calculated with the data analysis software XLfit4, General Pharmacology model 251.

| IC50 | Structure (SMILES) |
| --- | --- |
| 246 nM | Cc1cc(Cl)ncc1-c1ccc2[nH]c(-c3c(F)cccc3Cl)cc2n1 [Example 2, 2-(2-Chloro-6-fluoro-phenyl)-5-(6-chloro-4-methyl-pyridin-3-yl)-1H-pyrrolo[3,2b]pyridine] |
| 94 nM | Cn1nc(C(F)(F)F)cc1-c1ccc2[nH]c(-c3c(F)cccc3Cl)cc2n1 [Example 3, 2-(2-Chloro-6-fluoro-phenyl)-5-(2-methyl-5-trifluoromethyl-2H-pyrazol-3-yl)-1H-pyrrolo[3,2-b]pyridine] |
| 80 nM | Cc1cc(C(F)(F)F)ccc1-c1ccc2[nH]c(-c3c(F)cccc3Cl)cc2n1 [Example 4, 2-(2-chloro-6-fluorophenyl)-5-(2-methyl-4-(trifluoromethyl)phenyl)-1H-pyrrolo[3,2-b]pyridine] |
| 347 nM | Cc1cc(C#N)ccc1-c1ccc2[nH]c(-c3c(F)cccc3Cl)cc2n1 [Example 5, 4-(2-(2-chloro-6-fluorophenyl)-1H-pyrrolo[3,2-b]pyridin-5-yl)-3-methylbenzonitrile] |
| 92 nM | Cc1cc(S(=O)(=O)N(C)C)ccc1-c1ccc2[nH]c(-c3c(F)cccc3Cl)cc2n1 [Example 6, 4-(2-(2-chloro-6-fluorophenyl)-1H-pyrrolo[3,2-b]pyridin-5-yl)-N,N,3-trimethylbenzenesulfonamide] |
| 300 nM | Cc1cc(S(=O)(=O)N(C)C)ccc1-c1ccc2[nH]c(-c3ccccc3Cl)cc2n1 [Example 7, 4-[2-(2-Chloro-phenyl)-1H-pyrrolo[3,2-b]pyridin-5-yl]-3,N,N-trimethyl-benzenesulfonamide] |
| 147 nM | Cn1nc(C(F)(F)F)cc1-c1ccc2[nH]c(-c3ccc(F)cc3Cl)cc2n1 [Example 8, 2-(2-Chloro-4-fluoro-phenyl)-5-(2-methyl-5-trifluoromethyl-2H-pyrazol-3-yl)-1H-pyrrolo[3,2-b]pyridine] |
| 98 nM | Cc1cc(S(=O)(=O)N(C)C)ccc1-c1ccc2[nH]c(-c3ccc(F)cc3Cl)cc2n1 [Example 9, 4-[2-(2-Chloro-4-fluoro-phenyl)-1H-pyrrolo[3,2-b]pyridin-5-yl]-3,N,N-trimethyl-benzenesulfonamide] |
| 134 nM | Cc1cc(S(=O)(=O)N(C)C)ccc1-c1ccc2[nH]c(-c3c(F)cccc3F)cc2n1 [Example 10, 4-[2-(2,6-Difluoro-phenyl)-1H-pyrrolo[3,2-b]pyridin-5-yl]-3,N,N-trimethyl-benzenesulfonamide] |
| 767 nM | Cc1cc(C#N)ccc1-c1ccc2[nH]c(-c3c(F)cccc3F)cc2n1 [Example 11, 4-[2-(2,6-Difluoro-phenyl)-1H-pyrrolo[3,2-b]pyridin-5-yl]-3-methyl-benzonitrile] |
| 200 nM | Cn1nc(C(F)(F)F)cc1-c1ccc2[nH]c(-c3c(F)cccc3F)cc2n1 [Example 12, 2-(2,6-Difluoro-phenyl)-5-(2-methyl-5-trifluoromethyl-2H-pyrazol-3-yl)-1H-pyrrolo[3,2-b]pyridine] |
| 169 nM | COc1cc(F)c(-c2cc3nc(-c4ccc(S(=O)(=O)N(C)C)cc4C)ccc3[nH]2)c(F)c1 [Example 13, 4-(2-(2,6-difluoro-4-methoxyphenyl)-1H-pyrrolo[3,2-b]pyridin-5-yl)-N,N,3-trimethylbenzenesulfonamide] |
